Laboratory results taken from ChEMBL document CHEMBL1122763, “Synthesis and biological activity of certain 3,4-disubstituted pyrazolo[3,4-d]pyrimidine nucleosides” (J Med Chem, 1984).
Activity calls are given as the source filed them. The calls are words filed in the database; no cut-off is given here.

Key:
Vero [1] = assay: Virus rating was determined by comparing cytopathic effect against vero cells after infection with Vaccinia virus; assay type: functional, Chlorocebus sabaeus
P388 [2] = assay: Percent inhibition at a concentration 10 E -4 against P388 lymphoid neoplasm cells; assay type: functional, Mus musculus
Vero [3] = assay: Virus rating was determined by comparing cytopathic effect against vero cells after infection with Herpes simplex virus-1; assay type: functional, Chlorocebus sabaeus
[4] = Toxic level was determined; assay type: ADME
Vero [5] = assay: Virus rating was determined by comparing cytopathic effect against vero cells after infection with Parainfluenza type 3 (para 3); assay type: functional, Chlorocebus sabaeus
L1210 [6] = assay: Percent inhibition at a concentration 10 E -4 against L1210 leukemia cells; Inactive; assay type: functional, cell-based; conditions: Mus musculus
Leishmania tropica [7] = assay: Concentration in the culture media that produced 50% inhibition of the leishmania tropica growth; Range is 76-190; assay type: functional; conditions: read-out: ED50 (the source's name)
Vero [8] = assay: Virus rating was determined by comparing cytopathic effect against vero cells after infection with Vesicular stomatitis virus; assay type: functional, Chlorocebus sabaeus
[9] = (§1) Toxic level was determined; Non toxic; assay type: functional
Leishmania tropica [10] = assay: Concentration in the culture media that produced 50% inhibition of the leishmania tropica growth; assay type: functional; conditions: for EC50: read-out: ED50 (the source's name)
[11] = system: Lewis lung carcinoma cell line; assay: 50% inhibition of the tumor cell growth as compared to the untreated controls against Lewis lung cells; Inactive; assay type: functional, cell-based; conditions: Mus musculus
P388 [12] = assay: Percent inhibition at a concentration 10 E -4 against P388 lymphoid neoplasm cells; Inactive; assay type: functional, cell-based; conditions: Mus musculus
B16 [13] = assay: 50% inhibition of the tumor cell growth as compared to the untreated controls against B16 melanoma cells; Inactive; assay type: functional, cell-based; conditions: Mus musculus
L1210 [14] = assay: Compound was evaluated for inhibition of L1210 leukemia cells; assay type: functional; conditions: Mus musculus, read-out: ID50 (the source's name)
P388 [15] = assay: Inhibition at a concentration 10 E -4 against P388 lymphoid neoplasm cells; Inactive; assay type: functional, cell-based; conditions: Mus musculus
[16] = as §1; assay type: ADME
P388 [17] = assay: Compound was evaluated for inhibition of P388 lymphoid neoplasm cells; assay type: functional; conditions: Mus musculus, read-out: ID50 (the source's name)
L1210 [18] = assay: Percent inhibition at a concentration 10 E -4 against L1210 leukemia cells; assay type: functional, Mus musculus
[19] = system: Lewis lung carcinoma cell line; assay: 50% inhibition of the tumor cell growth as compared to the untreated controls against Lewis lung cells; assay type: functional; conditions: Mus musculus, read-out: ID50 (the source's name)
B16 [20] = assay: 50% inhibition of the tumor cell growth as compared to the untreated controls against B16 melanoma cells; assay type: functional; conditions: Mus musculus, read-out: ID50 (the source's name)
L1210 [21] = assay: Compound was evaluated for inhibition against L1210 leukemia cells; assay type: functional; conditions: Mus musculus, read-out: ID50 (the source's name)
P388 [22] = assay: Compound was evaluated for inhibition against P388 lymphoid neoplasm cells; assay type: functional; conditions: Mus musculus, read-out: ID50 (the source's name)
B16 [23] = assay: Percent inhibition of the tumor cell growth as compared to the untreated controls against B16 melanoma cells at a concentration of 10 E-4; assay type: functional, Mus musculus

| SMILES | Virus rating (Vero [1]) | Virus rating (Vero [3]) | Toxic level [4] | Virus rating (Vero [5]) | Virus rating (Vero [8]) | IC50 (L1210 [14]) | IC50 (P388 [17]) | IC50 [19] | other results |
| --- | --- | --- | --- | --- | --- | --- | --- | --- | --- |
| CNc1nn(C2O[C@H](CO)[C@@H](O)[C@H]2O)c2nc[nH]c(=O)c12 (some centres not stated) | 0.2 | 0 | 1.6 mM | 0.1 | – | – | – | – | Inhibition (P388 [2]): 20%; inhibition (L1210 [6]): inactive |
| O=c1[nH]cnc2c1cnn2[C@@H]1O[C@H](CO)[C@@H](O)[C@H]1O | – | 0 | – | 0.2 | 0.3 | – | – | – | EC50 (Leishmania tropica [7]): 76 µM; Toxic level [9]: 5 mM |
| Nc1nn(C2O[C@H](CO)[C@@H](O)[C@H]2O)c2nc[nH]c(=O)c12 (some centres not stated) | 0.45 | 0.15 | 5 mM | 0.3 | 0 | – | – | – | EC50 (Leishmania tropica [10]): > 177 µM; ID50 [11]: inactive; inhibition (P388 [12]): inactive; ID50 (B16 [13]): inactive; inhibition (L1210 [6]): inactive |
| N=C(NO)c1nn(C2O[C@H](CO)[C@@H](O)[C@H]2O)c2nc[nH]c(=O)c12 (some centres not stated) | 0.12 | 0.1 | – | 0.2 | 0.35 | – | – | – | ID50 (P388 [12]): inactive; ID50 (L1210 [6]): inactive; Toxic level [9]: 5 mM |
| N#Cc1nn(C2O[C@H](CO)[C@@H](O)[C@H]2O)c2ncnc(N)c12 (some centres not stated) | – | – | – | – | – | 79 nM | – | – | – |
| Nc1ncnc2c1c(N)nn2C1O[C@H](CO)[C@@H](O)[C@H]1O (some centres not stated) | 0.4 | 1.3 | – | 0.45 | 0.25 | – | – | – | ID50 (P388 [15]): inactive; Toxic level [9]: 5 mM |
| N#Cc1nn(C2O[C@H](CO)[C@@H](O)[C@H]2O)c2ncnc(S)c12 (some centres not stated) | 1.24 | 1 | – | 1.1 | 0.56 | 140 nM | 320 nM | – | Toxic level [16]: 5 mM |
| Nc1ncnc2c1c(Br)nn2C1O[C@H](CO)[C@@H](O)[C@H]1O (some centres not stated) | 0.1 | 0.4 | 0.5 mM | 0.2 | 0 | – | – | – | Inhibition (L1210 [18]): 28%; inhibition (P388 [12]): inactive |
| CSc1nn(C2O[C@H](CO)[C@@H](O)[C@H]2O)c2nc[nH]c(=O)c12 (some centres not stated) | 0 | 0.16 | 5 mM | 0.11 | – | – | – | – | Inhibition (P388 [2]): 16%; inhibition (L1210 [6]): inactive |
| NC(=S)c1nn(C2O[C@H](CO)[C@@H](O)[C@H]2O)c2nc[nH]c(=O)c12 (some centres not stated) | 0.4 | 0 | 5 mM | 1.15 | – | 360 nM | 600 nM | 2.4 µM | IC50 (B16 [20]): 16 µM |
| Cl.N=C(N)c1nn(C2O[C@H](CO)[C@H](O)[C@@H]2O)c2ncnc(O)c12 (some centres not stated) | 0.31 | 0.2 | 5 mM | 1.1 | 0 | 230 nM | 370 nM | 6.4 µM | IC50 (B16 [20]): 3.8 µM |
| N#Cc1nn(C2O[C@H](CO)[C@@H](O)[C@H]2O)c2nc[nH]c(=O)c12 (some centres not stated) | 0.55 | 0.25 | – | 0.32 | 0 | – | – | 250 µM | IC50 (L1210 [21]): 200 nM; IC50 (P388 [22]): 460 nM; IC50 (B16 [20]): 7 µM; Toxic level [9]: 5 mM |
| O=c1[nH]cnc2c1c(Br)nn2C1O[C@H](CO)[C@@H](O)[C@H]1O (some centres not stated) | – | 0.2 | 5 mM | 0.03 | – | – | – | – | Inhibition (P388 [2]): 28%; Inhibition (L1210 [18]): 25%; IC50 (Leishmania tropica [10]; read-out: ID50 (the source's name)): > 15 µM |
| O=Nn1c(=O)c2c(O)ncnc2n1C1O[C@H](CO)[C@@H](O)[C@H]1O (some centres not stated) | 0.8 | 0.35 | 5 mM | 0.45 | 0 | 430 nM | 160 nM | 2.5 µM | EC50 (Leishmania tropica [10]): > 160 µM; IC50 (B16 [20]): 80 µM |
| OC[C@H]1OC(n2ncc3c(S)ncnc32)[C@H](O)[C@@H]1O (some centres not stated) | – | – | – | – | – | – | – | – | EC50 (Leishmania tropica [10]): 72 µM |
| NC(=O)c1nn(C2O[C@H](CO)[C@@H](O)[C@H]2O)c2nc[nH]c(=O)c12 (some centres not stated) | 0.4 | 0 | 5 mM | 0.3 | 0 | 13000 nM | 18000 nM | 20 µM | Inhibition (B16 [23]): 37% |
